Legend:
Assay in all cases: direct labeling of recombinantly expressed proteins by gel-based ABPP (WT vs lysine mutant)
Format in all cases: binding
PNPO = molecular target: T1, PNPO (Homo sapiens, UniProt Q9NVS9); conditions: PNPO K100, KR mutant; 10 μM probe, 1 h
T1 construct: Flag; expressed in transfected cells; host or cells: HEK 293T, transient transfection, soluble lysate
T1 sequence (Q9NVS9 1-261): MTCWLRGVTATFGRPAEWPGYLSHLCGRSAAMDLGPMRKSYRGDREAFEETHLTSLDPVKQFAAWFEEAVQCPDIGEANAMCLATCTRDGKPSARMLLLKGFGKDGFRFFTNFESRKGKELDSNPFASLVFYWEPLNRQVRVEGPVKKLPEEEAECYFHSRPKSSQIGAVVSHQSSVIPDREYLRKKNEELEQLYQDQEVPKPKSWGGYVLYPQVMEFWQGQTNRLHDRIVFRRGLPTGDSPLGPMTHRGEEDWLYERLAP

TPMT = molecular target: T2, TPMT (Homo sapiens, UniProt P51580); conditions: TPMT K32, KR mutant; 10 μM probe, 1 h
T2 construct: expressed in transfected cells; host or cells: HEK 293T
T2 sequence (P51580 1-245): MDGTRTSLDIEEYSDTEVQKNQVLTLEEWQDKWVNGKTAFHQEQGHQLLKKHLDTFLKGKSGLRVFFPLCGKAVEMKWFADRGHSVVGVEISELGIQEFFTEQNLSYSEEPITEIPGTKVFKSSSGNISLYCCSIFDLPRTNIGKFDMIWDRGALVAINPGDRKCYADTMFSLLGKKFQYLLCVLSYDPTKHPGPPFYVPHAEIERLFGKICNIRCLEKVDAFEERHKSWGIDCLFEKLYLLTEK

PFKL = molecular target: T3, PFKL (Homo sapiens, UniProt P17858); conditions: PFKL K676, KA mutant; 10 μM probe, 1 h
T3 construct: expressed in transfected cells; host or cells: HEK 293T
T3 sequence (P17858 1-780): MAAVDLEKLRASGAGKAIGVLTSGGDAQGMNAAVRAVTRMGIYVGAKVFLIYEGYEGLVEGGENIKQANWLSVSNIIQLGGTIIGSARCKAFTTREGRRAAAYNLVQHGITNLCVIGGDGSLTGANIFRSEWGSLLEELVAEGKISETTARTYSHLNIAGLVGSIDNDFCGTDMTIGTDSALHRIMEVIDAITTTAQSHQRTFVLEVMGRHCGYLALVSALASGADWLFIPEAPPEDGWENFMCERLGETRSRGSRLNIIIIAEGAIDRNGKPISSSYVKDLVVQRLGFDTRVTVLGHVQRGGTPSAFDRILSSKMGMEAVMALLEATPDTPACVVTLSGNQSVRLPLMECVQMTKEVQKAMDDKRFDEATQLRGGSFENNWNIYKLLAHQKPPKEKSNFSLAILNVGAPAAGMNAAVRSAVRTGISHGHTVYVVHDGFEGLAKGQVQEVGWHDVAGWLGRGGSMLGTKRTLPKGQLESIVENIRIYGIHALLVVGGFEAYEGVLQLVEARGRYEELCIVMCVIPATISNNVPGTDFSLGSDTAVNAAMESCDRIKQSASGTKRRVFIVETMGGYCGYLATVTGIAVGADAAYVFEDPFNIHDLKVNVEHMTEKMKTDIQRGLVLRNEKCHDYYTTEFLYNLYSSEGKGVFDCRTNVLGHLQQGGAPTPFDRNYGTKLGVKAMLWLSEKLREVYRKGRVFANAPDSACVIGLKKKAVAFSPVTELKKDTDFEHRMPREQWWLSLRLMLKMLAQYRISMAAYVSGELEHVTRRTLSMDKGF

ADK = molecular target: T4, ADK (Homo sapiens, UniProt P55263); conditions: ADK K88, KR mutant; 10 μM probe, 1 h
T4 construct: expressed in transfected cells; host or cells: HEK 293T
T4 sequence (P55263 whole entry): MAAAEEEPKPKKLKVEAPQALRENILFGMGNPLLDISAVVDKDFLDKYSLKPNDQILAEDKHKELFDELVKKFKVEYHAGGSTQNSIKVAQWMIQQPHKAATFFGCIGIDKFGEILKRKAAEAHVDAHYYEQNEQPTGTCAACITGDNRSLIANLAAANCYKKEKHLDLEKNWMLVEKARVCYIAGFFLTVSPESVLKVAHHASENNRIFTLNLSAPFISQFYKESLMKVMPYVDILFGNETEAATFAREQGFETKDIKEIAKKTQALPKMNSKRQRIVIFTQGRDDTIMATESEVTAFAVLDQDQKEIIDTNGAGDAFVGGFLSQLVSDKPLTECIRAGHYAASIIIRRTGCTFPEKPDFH

SMILES	labeling of WT vs mutant protein by probe (PNPO)	labeling of WT vs mutant protein by probe (TPMT)	labeling of WT vs mutant protein by probe (PFKL)	labeling of WT vs mutant protein by probe (ADK)
C#CCCC(=O)Oc1c(F)c(F)c(S(=O)(=O)[O-])c(F)c1F.[Na+] [probe 1, reference compound]	HD (the WT labeled more than the mutant (>4x difference quantified))	HD (the WT labeled more than the mutant (>4x difference quantified))	PD (the WT labeled more than the mutant (>2x difference quantified))	PD (the WT labeled more than the mutant (>2x difference quantified))
C#Cc1ccc(C(=O)Oc2c(F)c(F)cc(F)c2F)cc1 [probe 12, 2,3,5,6-Tetrafluorophenyl 4-ethynylbenzoate]	PD (the WT labeled more than the mutant (>2x difference quantified))	ND (the WT did not label more than the mutant (<2x difference quantified))	PD (the WT labeled more than the mutant (>2x difference quantified))	HD (the WT labeled more than the mutant (>4x difference quantified))
C#Cc1ccc(C(=O)Oc2ccccc2[N+](=O)[O-])cc1 [probe 10, 2-Nitrophenyl 4-ethynylbenzoate]			PD (the WT labeled more than the mutant (>2x difference quantified))	HD (the WT labeled more than the mutant (>4x difference quantified))
Cc1cc(C)n2c1C=C1C=CC(CCC(=O)Oc3c(F)c(F)c(S(=O)(=O)[O-])c(F)c3F)=[N+]1[B-]2(F)F.[Na+] [probe 18, reference compound]	PD (the WT labeled more than the mutant (>2x difference quantified))	HD (the WT labeled more than the mutant (>4x difference quantified))	PD (the WT labeled more than the mutant (>2x difference quantified))	PD (the WT labeled more than the mutant (>2x difference quantified))
C#CCCC(=O)Oc1c(F)c(F)c(F)c(F)c1F [probe 6, Pentafluorophenyl 4-pentynoate]	PD (the WT labeled more than the mutant (>2x difference quantified))	ND (the WT did not label more than the mutant (<2x difference quantified))		
C#Cc1ccc(C(=O)Oc2c(F)c(F)c(F)c(F)c2F)cc1 [probe 13, Pentafluorophenyl 4-ethynylbenzoate]	ND (the WT did not label more than the mutant (<2x difference quantified))	ND (the WT did not label more than the mutant (<2x difference quantified))	PD (the WT labeled more than the mutant (>2x difference quantified))	HD (the WT labeled more than the mutant (>4x difference quantified))
